The values below come from patent publication US8071768B2, “Alkylquinoline and alkylquinazoline kinase modulators” (Janssen Pharmaceutica, N.V., priority 2005, dated 2011).

Structures can show the parent of a compound that is named as a salt. Bounds are passed on as bounds.

Data set [1] addresses T1, isolated kinase domain of the human c-kit receptor (Homo sapiens, UniProt P10721).
T1 construct: isolated kinase domain of the human c-kit receptor; purchased ProQinase lot SP005
The experiment in a line: c-Kit Fluorescence Polarization Kinase Assay. Type of data set: biochemical. Conditions: uncertainty ±10%; read-out: ckit IC50. How it is done:
c-Kit Fluorescence Polarization Kinase Assay
The compounds of the present invention are also specific inhibitors of c-Kit. Selection of preferred compounds of Formula I for use as c-Kit inhibitors was performed in the following manner using an in vitro kinase assay to measure inhibition of the isolated kinase domain of the human c-kit receptor in a fluorescence polarization (FP) protocol. The c-kit assay utilized the fluorescein-labeled phosphopeptide and the anti-phosphotyrosine antibody included in the Panvera Phospho-Tyrosine Kinase Kit (Green) supplied by Invitrogen. When c-kit phosphorylated the poly Glu4Tyr, the fluorescein-labeled phosphopeptide was displaced from the anti-phosphotyrosine antibody by the phosphorylated poly Glu4Tyr, thus decreasing the FP value. The c-kit kinase reaction was incubated at room temperature for 45 minutes under the following conditions: 1 nM c-kit (ProQinase, lot SP005), 100 ug/mL poly Glu4Tyr, 50 uM ATP, 5 mM MgCl2, 1 mM DTT, 0.01% Tween-20, 1% DMSO or compound in […], pH 7.5. The kinase reaction was stopped with the addition of EDTA. The fluorescein-labeled phosphopeptide and the anti-phosphotyrosine antibody were added and incubated for 30 minutes at room temperature and fluorescence polarization was read. Data points were an average of triplicate samples. Inhibition and IC50 data analysis were done with GraphPad Prism using a non-linear regression fit with a multiparamater, sigmoidal dose-response (variable slope) equation.

Data set [2] addresses T2, TrkB (Homo sapiens, UniProt Q16620).
T2 construct: purchased Upstate 14-507M
The experiment in a line: Trk B Fluorescence Polarization Kinase Assay. The class given is biochemical. Conditions: uncertainty ±10%. Summed up:
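The TrkB kinase reaction (50 nM enzyme, 20 ug/mL poly Glu4Tyr, 150 uM ATP, 5 mM MgCl2, 1% DMSO) ran 30 minutes at room temperature and was stopped with EDTA. Phosphorylation was detected by fluorescence-polarization displacement of a fluorescein phosphopeptide from an anti-phosphotyrosine antibody. IC50 came from a variable-slope sigmoidal fit of triplicates.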

The subject of data set [3] is FLT3. In words: FLT3 phosphorylation in MV4-11 tumors from treated mice (immunoblot). The class given is in vivo, nude mice. The conditions noted are these: single dose 100 mg/kg po, tumors harvested 2 hours later. The protocol:
To establish further that compounds of the present invention reached the expected target in tumor tissue, the level of FLT3 phosphorylation in tumor tissue obtained from vehicle- and compound-treated mice was measured. Results for Compound 73 and Compound 74 are shown in FIG. 3 and FIG. 4, respectively. For this pharmacodynamic study, a sub-set of 10 mice from the vehicle-treated control group were randomized into two groups of 5 mice each and then treated with another dose of vehicle or compound (100 mg/kg, po). Tumors were harvested 2 hours later and snap frozen for assessment of FLT3 phosphorylation by immunobloting.
Harvested tumors were processed for immunoblot analysis of FLT3 phosphorylation in the following manner: 100 mg of tumor tissue was dounce homogenized in lysis buffer (50 mM Hepes, 150 mM NaCl, 10% Glycerol, 1% Triton-X-100, 10 mM NaF, 1 mM EDTA, 1.5 mM MgCl2, 10 mM NaPyrophosphate) supplemented with phosphatase (Sigma Cat#P2850) and protease inhibitors (Sigma Cat #P8340). Insoluble debris was removed by centrifugation at 1000×g for 5 minutes at 4° C. Cleared lysates ([…] of total potein at 10 mg/ml in lysis buffer) were incubated with 10 μg of agarose conjugated anti-FLT3 antibody, clone C-20 (Santa Cruz cat # sc-479ac), for 2 hours at 4° C. with gentle agitation. […]

The subject of data set [4] is MV4-11 tumor xenografts. The experiment in a line: nude mouse MV4-11 human tumor xenograft regression model. Conditions: for decrease of mean tumor volume compared to vehicle-treated group: Day 11; for reduction of final tumor weight compared to vehicle-treated group: eleven days oral dosing. Type of data set: in vivo, nude mice. The protocol:
Female athymic nude mice (CD-1, nu/nu, 9-10 weeks old) were obtained from Charles River Laboratories (Wilmington, Mass.) and were maintained according to NIH standards. All mice were group housed (5 mice/cage) under clean-room conditions in sterile micro-isolator cages on a 12-hour light/dark cycle in a room maintained at 21-22° C. and 40-50% humidity. Mice were fed irradiated standard rodent diet and water ad libitum. All animals were housed in a Laboratory Animal Medicine facility that is fully accredited by the American Association for Assessment and Accreditation of Laboratory Animal Care (AAALAC). All procedures involving animals were conducted in compliance with the NIH Guide for the Care and Use of Laboratory Animals and all protocols were approved by an Internal Animal Care and Use Committee (IACUC).
The human leukemic MV4-11 cell line was obtained from the American Type Culture Collection (ATCC Number: CRL-9591) and propagated in RPMI medium containing 10% FBS (fetal bovine serum) and 5 ng/mL GM-CSF (R&D Systems). MV4-11 cells are derived from a patient with childhood acute myelomonocytic leukemia with an 11q23 translocation resulting in a MLL gene rearrangement and containing an FLT3-ITD mutation (AML subtype M4)(1,2). MV4-11 cells express constitutively active phosphorylated FLT3 receptor as a result of a naturally occurring FLT3/ITD mutation. Strong anti-tumor activity against MV4-11 tumor growth in the nude mouse tumor xenograft model is anticipated to be a desirable quality of the invention.
(§1) Female athymic nude mice weighing no less than 20-21 grams were inoculated subcutaneously in the left inguinal region of the thigh with 5×10^6 tumor cells in a delivery volume of 0.2 mL. For regression studies, the tumors were allowed to grow to a pre-determined size prior to initiation of dosing.
(See FIG. 2). […] Percent Inhibition was calculated versus the mean tumor weight in the vehicle-treated control group.

The nature of data set [5]: Tolerability in the MV4-11 xenograft study (body weight, overt clinical signs). The class given is in vivo, nude mice. Conditions: 11-day treatment, doses up to 200 mg/kg/day. The protocol: as §1

T2 sequence (Q16620 32-822): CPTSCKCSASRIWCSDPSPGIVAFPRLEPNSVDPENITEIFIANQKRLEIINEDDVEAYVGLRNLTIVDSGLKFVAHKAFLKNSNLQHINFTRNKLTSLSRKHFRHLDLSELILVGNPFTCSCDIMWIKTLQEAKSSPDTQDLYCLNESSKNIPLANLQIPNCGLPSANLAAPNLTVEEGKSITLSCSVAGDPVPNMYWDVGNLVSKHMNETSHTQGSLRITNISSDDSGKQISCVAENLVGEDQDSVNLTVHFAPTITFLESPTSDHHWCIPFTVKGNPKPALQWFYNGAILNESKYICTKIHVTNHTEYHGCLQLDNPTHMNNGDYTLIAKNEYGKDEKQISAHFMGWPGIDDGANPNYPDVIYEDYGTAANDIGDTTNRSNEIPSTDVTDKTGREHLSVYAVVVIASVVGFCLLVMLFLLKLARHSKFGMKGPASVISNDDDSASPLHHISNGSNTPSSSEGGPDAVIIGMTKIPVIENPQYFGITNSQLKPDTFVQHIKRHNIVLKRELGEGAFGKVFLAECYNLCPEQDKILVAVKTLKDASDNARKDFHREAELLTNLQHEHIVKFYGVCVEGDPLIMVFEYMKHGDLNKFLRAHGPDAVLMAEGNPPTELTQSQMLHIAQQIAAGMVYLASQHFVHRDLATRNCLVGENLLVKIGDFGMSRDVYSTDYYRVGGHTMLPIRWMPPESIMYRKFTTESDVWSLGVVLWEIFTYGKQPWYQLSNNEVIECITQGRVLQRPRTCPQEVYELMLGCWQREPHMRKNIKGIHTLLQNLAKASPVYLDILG
T1 sequence (P10721 589-937 limits assumed): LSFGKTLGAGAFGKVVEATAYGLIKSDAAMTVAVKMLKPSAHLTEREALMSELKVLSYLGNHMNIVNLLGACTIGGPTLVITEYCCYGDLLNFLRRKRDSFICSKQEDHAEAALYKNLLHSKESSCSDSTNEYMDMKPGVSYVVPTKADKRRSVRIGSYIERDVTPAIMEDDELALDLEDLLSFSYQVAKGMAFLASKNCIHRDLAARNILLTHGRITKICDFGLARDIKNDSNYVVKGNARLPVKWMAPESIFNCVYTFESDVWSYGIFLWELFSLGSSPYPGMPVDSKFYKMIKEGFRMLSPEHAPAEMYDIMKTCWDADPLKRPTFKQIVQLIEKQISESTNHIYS

As to `O=C1CCCN1CCCOc1ccc2c(C3CCN(C(=O)Nc4ccc(N5CCOCC5)cc4)CC3)ncnc2c1` [Compound 68, 4-{7-[3-(2-Oxo-pyrrolidin-1-yl)-propoxy]-quinazolin-4-yl}-piperidine-1-carboxylic acid (4-morpholin-4-yl-phenyl)-amide], the figures for the half-inhibitory concentration (IC50) in data set [1] and in data set [2] were 0.028 µM and more than 20 µM, respectively.

On to `O=C1CCCN1CCOc1ccc2c(C3CCN(C(=O)Nc4ccc(N5CCOCC5)nc4)CC3)ncnc2c1` [Compound 83, 4-{7-[2-(2-Oxo-pyrrolidin-1-yl)-ethoxy]-quinazolin-4-yl}-piperidine-1-carboxylic acid (6-morpholin-4-yl-pyridin-3-yl)-amide], for which the IC50 in data set [1] turned out to be 0.025 µM; in data set [2] it was 8.5 µM.

Regarding `CC(C)Oc1ccc(NC(=O)N2CCC(c3ncnc4ccc(OCCCN5CCN(C)CC5)cc34)CC2)cc1` [Compound 76, 4-{6-[3-(4-Methyl-piperazin-1-yl)-propoxy]-quinazolin-4-yl}-piperidine-1-carboxylic acid (4-isopropoxy-phenyl)-amide], the IC50 stood at 0.282 µM in data set [1] and 7.9 µM in data set [2].

With `O=C1CCCN1CCCOc1ccc2c(C3CCN(C(=O)Nc4ccc(N5CCCC5)nc4)CC3)ncnc2c1` [Compound 89, 4-{7-[3-(2-Oxo-pyrrolidin-1-yl)-propoxy]-quinazolin-4-yl}-piperidine-1-carboxylic acid (6-pyrrolidin-1-yl-pyridin-3-yl)-amide], the IC50 in data set [1] was found to be 0.013 µM; in data set [2], 2.7 µM.

Take `CS(=O)(=O)NCCCOc1ccc2c(C3CCN(C(=O)Nc4ccc(OC5CCCC5)nc4)CC3)ncnc2c1` [Compound 88, 4-[7-(3-Methanesulfonylamino-propoxy)-quinazolin-4-yl]-piperidine-1-carboxylic acid (6-cyclopentyloxy-pyridin-3-yl)-amide]: the concentration for half-maximal inhibition (IC50) in data set [1] turned out to be 0.011 µM; in data set [2], 0.4 µM.

Regarding `COc1cc2ncnc(C3CCN(C(=O)Nc4ccc(OC(C)C)cc4)CC3)c2cc1OC` [Compound 1, 4-(6,7-Dimethoxy-quinazolin-4-yl)-piperidine-1-carboxylic acid (4-isopropoxy-phenyl)-amide hydrochloride], the IC50 in data set [1] turned out to be 0.0825 µM; in data set [2], 0.22 µM.

On to `CN1CCN(CCCOc2ccc3c(C4CCN(C(=O)Nc5ccc(N6CCOCC6)nc5)CC4)ncnc3c2)CC1` [Compound 80, 4-{7-[3-(4-Methyl-piperazin-1-yl)-propoxy]-quinazolin-4-yl}-piperidine-1-carboxylic acid (6-morpholin-4-yl-pyridin-3-yl)-amide], for which the IC50 was 0.16 µM in data set [1] and 9.1 µM in data set [2].

Turning to `O=C1CCCN1CCOc1ccc2c(C3CCN(C(=O)Nc4ccc(N5CCCC5)cc4)CC3)ncnc2c1` [Compound 74, 4-{7-[2-(2-Oxo-pyrrolidin-1-yl)-ethoxy]-quinazolin-4-yl}-piperidine-1-carboxylic acid (4-pyrrolidin-1-yl-phenyl)-amide], the “level of FLT3 phosphorylation in MV4-11 tumors compared to vehicle-treated mice” value in data set [3] is reported as “biologically significant reduction”. The “decrease of mean tumor volume compared to vehicle-treated group” value amounted to 22% in data set [4] (10 mg/kg b.i.d. oral), 54% in data set [4] (30 mg/kg b.i.d. oral) and 96% in data set [4] (100 mg/kg b.i.d. oral). Further, the “reduction of final tumor weight compared to vehicle-treated group” value in data set [4] (10 mg/kg) was 12%; in data set [4] (30 mg/kg), 43%; in data set [4] (100 mg/kg), 91%. Besides, the “tumor regression: decrease versus starting mean tumor volume on Day 1” value in data set [4] (100 mg/kg b.i.d. oral) is 79%. Moreover, the “adverse effects on body weight” value in data set [5] is given as “no significant adverse effects on body weight”. Besides, in data set [5], the overt toxicity result is “No overt toxicity”. The IC50 in data set [1] amounted to 0.013 µM; in data set [2] it was 3.3 µM.

On to `COc1cc2ncnc(C3CCN(C(=O)Nc4ccc(N5CCOCC5)cc4)CC3)c2cc1OC` [Compound 18, 4-(6,7-Dimethoxy-quinazolin-4-yl)-piperidine-1-carboxylic acid (4-morpholin-4-yl-phenyl)-amide], for which the figures for the IC50 in data set [1] and in data set [2] were 0.158 µM and 19.2 µM, respectively.

With `O=C1CCCN1CCCOc1ccc2c(C3CCN(C(=O)Nc4ccc(N5CCOCC5)nc4)CC3)ncnc2c1` [Compound 72, 4-{7-[3-(2-Oxo-pyrrolidin-1-yl)-propoxy]-quinazolin-4-yl}-piperidine-1-carboxylic acid (6-morpholin-4-yl-pyridin-3-yl)-amide], the IC50 in data set [1] turned out to be 0.023 µM; in data set [2], 2 µM.

For `CN1CCN(CCCOc2ccc3c(C4CCN(C(=O)Nc5ccc(N6CCOCC6)cc5)CC4)ncnc3c2)CC1` [Compound 73, 4-{7-[3-(4-Methyl-piperazin-1-yl)-propoxy]-quinazolin-4-yl}-piperidine-1-carboxylic acid (4-morpholin-4-yl-phenyl)-amide], in data set [3], the “level of FLT3 phosphorylation in MV4-11 tumors compared to vehicle-treated mice” value is reported as “biologically significant reduction”. For the same compound, the “final tumors in some mice” value in data set [4] (high dose) is “regressed to non-palpable, non-detectable tumors”. In addition, in data set [5], the “adverse effects on body weight” value is “no significant adverse effects on body weight” and the overt toxicity entry is “No overt toxicity”. Further, in data set [1], the IC50 is 0.04 µM. In data set [2], this compound gave an IC50 of more than 20 µM.

Take `COc1cc2ncnc(C3CCN(C(=O)Nc4ccc(C(C)C)cc4)CC3)c2cc1OC` [Compound 4, 4-(6,7-Dimethoxy-quinazolin-4-yl)-piperidine-1-carboxylic acid (4-isopropyl-phenyl)-amide]: the IC50 in data set [1] stood at 0.61 µM.

Consider `COc1cc2ncnc(C3CCN(C(=O)Nc4ccc(OC5CCC5)nc4)CC3)c2cc1OC` [Compound 17, 4-(6,7-Dimethoxy-quinazolin-4-yl)-piperidine-1-carboxylic acid (6-cyclobutoxy-pyridin-3-yl)-amide], for which the figures for the IC50 in data set [1] and in data set [2] were 0.0775 µM and 0.5 µM, respectively.
